# Data published in article PMC9977050, “Thymoquinone effect on the Dictyostelium discoideum model correlates with functional roles for glutathione S-transferases in eukaryotic proliferation, chemotaxis, and development” (PLOS ONE, 2023).
# Key:
# Assay in all cases: CDNB conjugation assay, absorbance at […] nm
# Format in all cases: biochemical
# [1] = target: T1, rDdGSTA2 (Dictyostelium discoideum, UniProt Q556G3); details: GSH and CDNB as substrates, 25°C; mode not determined; authors caution that thymoquinone may also bind GSH, CDNB or product
# T1 construct: gene gsta2-1; purified recombinant
# T1 sequence (Q556G3 2-198): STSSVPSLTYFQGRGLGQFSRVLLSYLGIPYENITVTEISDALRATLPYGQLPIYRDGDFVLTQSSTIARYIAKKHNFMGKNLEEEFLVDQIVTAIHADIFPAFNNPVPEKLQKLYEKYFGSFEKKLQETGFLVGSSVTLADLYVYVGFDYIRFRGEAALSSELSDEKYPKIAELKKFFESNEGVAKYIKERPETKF
# [2] = target: T1, rDdGSTA2; details: with GSH, 25°C
# [3] = target: T2, rDdGSTA3 (Dictyostelium discoideum, UniProt Q54VI4); details: with GSH, 25°C
# T2 construct: gene gsta3; purified recombinant
# T2 sequence (Q54VI4 2-204): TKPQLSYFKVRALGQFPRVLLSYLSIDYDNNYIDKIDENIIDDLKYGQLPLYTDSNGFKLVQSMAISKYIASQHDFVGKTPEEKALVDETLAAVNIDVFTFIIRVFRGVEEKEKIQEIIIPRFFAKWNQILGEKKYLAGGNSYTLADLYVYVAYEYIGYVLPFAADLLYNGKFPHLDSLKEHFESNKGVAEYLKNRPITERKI
smiles,measurement,setting,value
"CC1=CC(=O)C(C(C)C)=CC1=O [thymoquinone, 2-isopropyl-5-methylbenzo-1,4-quinone]",% reduction of GS-DNB conjugate at 0.75 μM,[1],61%
"O=[N+]([O-])c1ccc(Cl)c([N+](=O)[O-])c1 [CDNB, 1-chloro-2,4-dinitrobenzene]","CDNB conjugation assay, absorbance at 340 nm",[2],"CDNB activity assays of purified, recombinant GSTs (rDdGSTA2, rDdGSTA3) were conducted"
same,"CDNB conjugation assay, absorbance at 340 nm",[3],"CDNB activity assays of purified, recombinant GSTs (rDdGSTA2, rDdGSTA3) were conducted"
